{"source": "patent US9643957B2", "about": "“Heterocyclic compounds having cholesterol 24-hydroxylase activity” (TAKEDA PHARMACEUTICAL COMPANY LIMITED, priority 2012, dated 2017)", "data": [{"target": "T1, human CH24H (Homo sapiens, UniProt Q9Y6A2)", "T1 construct": "Using Full-Length Mammalian Gene Collection No. 4819975 (Invitrogen) as a template; made in house; host or cells: FreeStyle 293-F cells, transient transfection with pcDNA3.1(+)/hCH24H; lysate supernatant, not purified", "T1 sequence (Q9Y6A2 whole entry)": "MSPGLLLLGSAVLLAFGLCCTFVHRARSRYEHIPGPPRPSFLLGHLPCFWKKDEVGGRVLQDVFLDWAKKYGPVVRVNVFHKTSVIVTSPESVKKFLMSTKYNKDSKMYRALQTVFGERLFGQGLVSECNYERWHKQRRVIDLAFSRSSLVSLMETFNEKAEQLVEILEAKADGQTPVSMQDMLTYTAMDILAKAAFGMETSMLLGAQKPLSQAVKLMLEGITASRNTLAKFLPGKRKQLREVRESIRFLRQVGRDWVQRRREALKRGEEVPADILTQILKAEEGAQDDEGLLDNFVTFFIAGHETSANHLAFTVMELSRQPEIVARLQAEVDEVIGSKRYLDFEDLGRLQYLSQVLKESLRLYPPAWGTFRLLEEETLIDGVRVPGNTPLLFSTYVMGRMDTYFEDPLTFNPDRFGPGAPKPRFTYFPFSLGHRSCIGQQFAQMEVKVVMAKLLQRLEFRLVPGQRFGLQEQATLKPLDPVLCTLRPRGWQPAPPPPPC", "assay": "Measurement of CH24H inhibitory activity (24-HC produced from [14C] cholesterol by human CH24H lysate)", "type": "biochemical", "details": "1 μM test compound, [14C] cholesterol 15 μM, 37° C. for 5 hr, read-out: Inhibitory Rate in 1 μM (%)", "procedure": "The expression of human CH24H was performed using FreeStyle 293 Expression System (Invitrogen). […] After transfection, the cells were cultured at 37° C., 8% CO2 with shaking at 125 rpm for 2 days. The cells were collected by centrifugation, and suspended in a suspension buffer (100 mM potassium phosphate (pH 7.4), 0.1 mM EDTA, 1 mM DTT, 20% Glycerol). The suspended product was disrupted by a polytron homogenizer (manufactured by Kinematica), and centrifuged at 9000×g for 10 min, and the supernatant was collected. The collected supernatant was cryopreserved (−80° C.) as a human CH24H lysate standard product.\nFor the measurement of CH24H inhibitory activity, using the human CH24H lysate prepared in Experimental Example 2, the amount of 24-HC produced from cholesterol by catalytic activity of CH24H was measured in the presence of a test compound, and compared with that measured in the absence of the test compound. That is, a test compound solution at various concentrations was mixed with a reaction buffer (50 mM potassium phosphate containing 0.1% BSA and Complete, EDTA-free, pH 7.4) and human CH24H lysate. Then, [^14C] cholesterol (53 mCi/mmol specific activity, 15 μM) was added, and CH24H reaction was performed at 37° C. for 5 hr. After completion of the reaction, a quenching solution consisting of chloroform/methanol/distilled water (2:2:1 v/v) was added, and the resulting 24-HC was extracted by shaking. The extract was applied to silica gel thin layer chromatography (ethyl acetate:toluene=4:6), and the obtained ^14C-24HC fraction was measured with BAS2500 (Fujifilm Corporation).\nThe inhibitory rate (%) was calculated from the ratio of radioactivity in the presence of a test compound relative to the radioactivity in the absence of the test compound.", "units": {"inhibition at 1 µM": "%"}, "values": [{"smiles": "Cc1cnc(-c2ccncc2N2CCC(C(=O)N3CC(F)C3)CC2)s1", "note": "[Example 317, (3-fluoroazetidin-1-yl) (1-(4-(5-methyl-1,3-thiazol-2-yl)pyridin-3-yl)piperidin-4-yl)methanone]", "inhibition at 1 µM": 95}, {"smiles": "Cc1cnn(-c2ccncc2N2CCC(C(=O)N(CCF)[C@@H]3CCOC3)CC2)c1", "note": "[Example 313, N-(2-fluoroethyl)-1-(4-(4-methyl-1H-pyrazol-1-yl)pyridin-3-yl)-N-((3R)-tetrahydrofuran-3-yl)piperidine-4-carboxamide]", "inhibition at 1 µM": 82}, {"smiles": "O=C(C1CC1)N1CCN(c2cncc(F)c2-c2ccccc2)CC1", "note": "[Example 165, cyclopropyl(4-(5-fluoro-4-phenylpyridin-3-yl)piperazin-1-yl)methanone]", "inhibition at 1 µM": 86}, {"smiles": "O=C(C1CCN(c2cnccc2-n2cc(C3CC3)cn2)CC1)N1CC[C@H](F)C1", "note": "[Example 322, (1-(4-(4-cyclopropyl-1H-pyrazol-1-yl)pyridin-3-yl)piperidin-4-yl)((3S)-3-fluoropyrrolidin-1-yl)methanone]", "inhibition at 1 µM": 93}, {"smiles": "CN(C(=O)C1CCN(c2cnccc2-n2cc(Cl)cn2)CC1)[C@H]1CCOC1", "note": "[Example 307, 1-(4-(4-chloro-1H-pyrazol-1-yl)pyridin-3-yl)-N-methyl-N-((3S)-tetrahydrofuran-3-yl)piperidine-4-carboxamide]", "inhibition at 1 µM": 81}, {"smiles": "Cc1cnn(-c2ccncc2N2CCN(C(=O)N(CCF)Cc3ccc(F)cc3)CC2)c1", "note": "[Example 315, N-(4-fluorobenzyl)-N-(2-fluoroethyl)-4-(4-(4-methyl-1H-pyrazol-1-yl)pyridin-3-yl)piperazine-1-carboxamide]", "inhibition at 1 µM": 94}, {"smiles": "O=C(CC1CC1)N1C[C@@H]2C[C@H]1CN2c1cnccc1-c1ccccc1", "note": "[Example 161, 2-cyclopropyl-1-((1S,4S)-5-(4-phenylpyridin-3-yl)-2,5-diazabicyclo[2.2.1]hept-2-yl) ethanone]", "inhibition at 1 µM": 56}, {"smiles": "Cc1cnn(-c2ccncc2N2CCC(C(=O)N3CC[C@@H](F)C3)CC2)c1", "note": "[Example 283, ((3R)-3-fluoropyrrolidin-1-yl)(1-(4-(4-methyl-1H-pyrazol-1-yl)pyridin-3-yl)piperidin-4-yl)methanone]", "inhibition at 1 µM": 85}, {"smiles": "O=C(C1CCN(c2cnccc2-n2cc(Cl)cn2)CC1)N1CCS(=O)(=O)CC1", "note": "[Example 30, (1-(4-(4-chloro-1H-pyrazol-1-yl)pyridin-3-yl)piperidin-4-yl)(1,1-dioxidothiomorpholin-4-yl)methanone]", "inhibition at 1 µM": 97}, {"smiles": "Cc1nnc(-c2ccncc2N2CCC(C(=O)N3CCC[C@@H]3C#N)CC2)s1", "note": "[Example 87, (2R)-1-((1-(4-(5-methyl-1,3,4-thiadiazol-2-yl)pyridin-3-yl)piperidin-4-yl)carbonyl)pyrrolidine-2-carbonitrile]", "inhibition at 1 µM": 98}, {"smiles": "O=C(C1CCN(c2cnccc2-n2cc(Cl)cn2)CC1)N1C2COCC1C2", "note": "[Example 35, (1-(4-(4-chloro-1H-pyrazol-1-yl)pyridin-3-yl)piperidin-4-yl)(3-oxa-6-azabicyclo[3.1.1]hept-6-yl)methanone]", "inhibition at 1 µM": 98}, {"smiles": "N#C[C@@H]1CC(F)(F)CN1C(=O)C1CCN(c2cnccc2-n2cc(Cl)cn2)CC1", "note": "[Example 119, (2S)-1-((1-(4-(4-chloro-1H-pyrazol-1-yl)pyridin-3-yl)piperidin-4-yl)carbonyl)-4,4-difluoropyrrolidine-2-carbonitrile]", "inhibition at 1 µM": 93}, {"smiles": "Cc1cnc(-c2ccncc2N2CCC(C(=O)N3CC[C@H](F)C3)CC2)s1", "note": "[Example 316, ((3S)-3-fluoropyrrolidin-1-yl)(1-(4-(5-methyl-1,3-thiazol-2-yl)pyridin-3-yl)piperidin-4-yl)methanone]", "inhibition at 1 µM": 94}, {"smiles": "Cc1cnn(-c2ccncc2N2CCC(C(=O)N3CCC[C@H]3C(N)=O)CC2)c1", "note": "[Example 114, 1-((1-(4-(4-methyl-1H-pyrazol-1-yl)pyridin-3-yl)piperidin-4-yl)carbonyl)-L-prolinamide]", "inhibition at 1 µM": 86}]}]}
